Assay results from patent publication US7232929B2, “Amide derivatives of 2,2,3,3-tetramethylcyclopropane carboxylic acid” (Yissum Research Development Company of the Hebrew …, priority 2003, dated 2007).
Where two headings read alike, the source gives them in different places.

What was measured:
[1] = system: chemically induced convulsions (scMet) in mice; assay: subcutaneous metrazole test (scMet), mice, ip; type: in vivo; conditions: Mus musculus, read-out: ED50 in the scMet model
Source text: (§1) The first model, the maximal electroshock seizure test (MES), is used to show efficacy for antiepileptic agents against partial and generalized seizure type epilepsy, the common epilepsy among therapy resistant epileptic patients. The second model, the subcutaneous metrazole test (scMet) measures seizure threshold and is a standard screening procedure to show efficacy for agents against seizure threshold and absence seizures.

[2] = system: tactile allodynia in SNL rats; assay: rat spinal nerve ligation (SNL) model for neuropathic pain, von Frey filaments; type: in vivo
Method: Experiments were performed on male Sprague-Dawley rats (Harlan laboratories, Jerusalem, Israel) weighing 175–200 g. The mechanical sensitivity (tactile allodynia) of the foot was quantified by the occurrence of foot withdrawal in response to normally innocuous mechanical stimuli using nine different von Frey filaments (VFF) ranging from 0.6 to 26 g. The rats were placed on a metal mesh floor covered with a transparent plastic dome and a period of acclimatization was allowed prior to testing. VFF were applied from underneath the mesh floor to the plantar surface of the foot. Each trial consisted of repeated applications of each of the VFFs in an ascending order for 5 times, each for a period of 1 s. If the rat withdrew the foot at least 3 times out of 5 at a specific VFF no further ascending filaments were tested and this filament was considered as a withdrawal threshold (response). Mechanical stimulus trials with the series of ascending VFF were repeated 2 times for a given time point. The repeated measurements were averaged and taken as the paw withdrawal threshold on a given time point.
For drug testing, the effect on neuropathic pain was measured 5–6 days following operation. Rats responding to mechanical stimuli of 10 g or less (in the operated leg) were eligible for the study.
The procedure of ligation and cut of the spinal nerves for induction of neuropathic pain was performed as previously described by Sheen and Chung (Sheen, K. and Chung, J. M., Signs of neuropathic pain depend on signals from injured nerve fibers in a rat model, Brain Research 610: 62–68 (1993)). Briefly, under ketamine-xylazine anaesthesia rats were placed in a prone position and the left paraspinal muscles were separated from spinous processes at the L4-S2 level. Part of the L6 transverse process was removed and the L4–L6 spinal nerves were identified. The L5–L6 spinal nerves were isolated and tightly ligated and cut, distal to the dorsal root ganglion and proximal to the formation of the sciatic nerve. Following complete […] the wound was sutured.
For all the studies, appropriate amounts of the tested compound were suspended in 0.5% methylcellulose to a volume of 4 mL/kg body weight. TMC-Urea and methylcellulose (MC, vehicle) were administered intraperitoneally (i.p) to rats at postoperative days 7, 14 and 21 in a double blind randomized crossover manner.
Rats that obtained threshold of 15 g and above, back to pre-operation baseline, were regarded free of tactile allodynia.
Median effective dose (ED50) and its 95% confidence intervals were calculated using the pharmacodynamic software package WinNonlin, version 4.0.1 (SCI Software, Lexington, Ky., U.S.A.).
Threshold data from VFF testing are presented as actual threshold (absolute) in grams and as percent of absolute responders.
For statistical analyses the nonparametric two-tailed Mann-Whitney U was used. A p value less than 0.05 was considered significant.

rats [3] = assay: neurotoxicity, gait and stance test, rats, po; conditions: for protective index or safety of margin TD50/ED50: TD50 / MES ED50
Method: (§2) Neurotoxicity of the claimed agents was assessed in mice (ip. administration) in the rotorod ataxia test and in rats (po. administration) in the gait and stance test which assesses minimal neurotoxicity. The term qauntitating the neurotoxicity is the median neurological toxic dose (TD50).
The protective index (PI) is defined as the ratio of TD50 and ED50 (PI=TD50/ED50). The PI is used to show a useful separation between neurotoxicity and antiepileptic activity. The larger the PI, the better the separation between neurotoxicity and efficacious doses.

[4] = system: chemically induced convulsions (scMet) in rats; assay: subcutaneous metrazole test (scMet), rats, oral; type: in vivo, rat; conditions: for ED50: Rattus norvegicus, po, read-out: ED50 in the scMet model; for N/F (fraction of rats responded): scMET
Source text: as §1

[5] = system: electrically induced convulsions (MES) in mice; assay: maximal electroshock seizure test (MES), mice, ip; type: in vivo; conditions: Mus musculus, ip administration, read-out: ED50 in the MES model
Source text: as §1

[6] = system: electrically induced convulsions (MES) in rats; assay: maximal electroshock seizure test (MES), rats, oral; type: in vivo, rat; conditions: for N/F (fraction of rats responded): MES; for ED50: Rattus norvegicus, oral administration, read-out: ED50 (median effective dose) in the MES model
Source text: as §1

[7] = neurotoxicity, rotorod ataxia test, mice, ip; conditions: mouse, in vivo
Method: as §2

[8] = system: animal models of epilepsy; conditions: cited from earlier work
[9] = system: electrically induced convulsions (MES) in rats; conditions: literature comparison; cited from earlier work
mouse model = conditions: cited from earlier work
[10] = system: electrically induced convulsions (MES) in mice; conditions: literature comparison; cited from earlier work
[11] = system: chemically induced convulsions (scMet) in rats; conditions: literature comparison, inactive at 250 mg/kg; cited from earlier work
rats [12] = conditions: comparison values; cited from earlier work

For `CC1(C)C(C(=O)NC(N)=O)C1(C)C` [Compound I, N-2,2,3,3-tetramethylcyclopropanecarbonyl urea], the ED50 [1] was 125 mg/kg, the “Allodynic response, Total responders” value ([2]; 20 mg/kg ip) was 0/9 and the “Allodynic response (number of rats responded/total number of rats)” value ([2]; 20 mg/kg ip, 30 min) was 0/9. The “Allodynic response (number of rats responded/total number of rats)” value ([2]; 20 mg/kg ip, 60 min) was 0/9, the “Allodynic response (number of rats responded/total number of rats)” value ([2]; 20 mg/kg ip, 120 min) was 0/9 and the “Allodynic response (number of rats responded/total number of rats)” value ([2]; 20 mg/kg ip, 180 min) was 0/9. The “Allodynic response (number of rats responded/total number of rats)” value ([2]; 20 mg/kg ip, 240 min) was 0/9, the “Allodynic response, Total responders” value ([2]; 60 mg/kg ip) was 0/9 and the “Allodynic response (number of rats responded/total number of rats)” value ([2]; 60 mg/kg ip, 30 min) was 0/9. For the same compound, the “Allodynic response (number of rats responded/total number of rats)” value ([2]; 60 mg/kg ip, 60 min) was 0/9, the “Allodynic response (number of rats responded/total number of rats)” value ([2]; 60 mg/kg ip, 120 min) was 0/9 and the “Allodynic response (number of rats responded/total number of rats)” value ([2]; 60 mg/kg ip, 180 min) was 0/9. For the same compound, the “Allodynic response (number of rats responded/total number of rats)” value ([2]; 60 mg/kg ip, 240 min) was 0/9, the “Allodynic response, Total responders” value ([2]; 120 mg/kg ip) was 3/9 and the “Allodynic response (number of rats responded/total number of rats)” value ([2]; 120 mg/kg ip, 30 min) was 0/9. For the same compound, the “Allodynic response (number of rats responded/total number of rats)” value ([2]; 120 mg/kg ip, 60 min) was 1/9, the “Allodynic response (number of rats responded/total number of rats)” value ([2]; 120 mg/kg ip, 120 min) was 3/9 and the “Allodynic response (number of rats responded/total number of rats)” value ([2]; 120 mg/kg ip, 180 min) was 3/9. For the same compound, the “Allodynic response (number of rats responded/total number of rats)” value ([2]; 120 mg/kg ip, 240 min) was 3/9, the “Allodynic response, Total responders” value ([2]; 180 mg/kg ip) was 3/7 and the “Allodynic response (number of rats responded/total number of rats)” value ([2]; 180 mg/kg ip, 30 min) was 0/7. The “Allodynic response (number of rats responded/total number of rats)” value ([2]; 180 mg/kg ip, 60 min) was 1/7, the “Allodynic response (number of rats responded/total number of rats)” value ([2]; 180 mg/kg ip, 120 min) was 3/7 and the “Allodynic response (number of rats responded/total number of rats)” value ([2]; 180 mg/kg ip, 180 min) was 3/7. The “Allodynic response (number of rats responded/total number of rats)” value ([2]; 180 mg/kg ip, 240 min) was 3/7, the “Allodynic response, Total responders” value ([2]; 240 mg/kg ip) was 9/10 and the “Allodynic response (number of rats responded/total number of rats)” value ([2]; 240 mg/kg ip, 30 min) was 0/10. The “Allodynic response (number of rats responded/total number of rats)” value ([2]; 240 mg/kg ip, 60 min) was 2/10, the “Allodynic response (number of rats responded/total number of rats)” value ([2]; 240 mg/kg ip, 120 min) was 8/10 and the “Allodynic response (number of rats responded/total number of rats)” value ([2]; 240 mg/kg ip, 180 min) was 8/10. For the same compound, the “Allodynic response (number of rats responded/total number of rats)” value ([2]; 240 mg/kg ip, 240 min) was 8/10, the ED50 ([2]; Rattus norvegicus, ip, 2 h, i.p., at 120 min post-dose, read-out: ED50 (antiallodynic, rats free of tactile allodynia)) was 171 mg/kg and the “effect on tactile allodynia” value ([2]; i.p., significant reduction at 120 to 240 min at 120-240 mg/kg) was “decreased tactile allodynia in a dose-dependent manner”. For the same compound, the “protective index or safety of margin TD50/ED50” value (shortened to “protective index or safety”) (rats [3]) was 18.5, the “TD50 (median neurological toxic dose)” value (rats [3]; oral administration) was 538 mg/kg and the ED50 [4] was 91.8 mg/kg. For the same compound, the “N/F (fraction of rats responded)” value ([4]; dose 25 mg/kg) was 1/8, the “N/F (fraction of rats responded)” value ([4]; dose 50 mg/kg) was 3/8 and the “N/F (fraction of rats responded)” value ([4]; dose 100 mg/kg) was 3/8. The “N/F (fraction of rats responded)” value ([4]; dose 200 mg/kg) was 6/8, the “N/F (fraction of rats responded)” value ([4]; dose 400 mg/kg) was 8/8 and the ED50 [5] was 90 mg/kg. The “N/F (fraction of rats responded)” value ([6]; dose 10 mg/kg) was 0/8, the “N/F (fraction of rats responded)” value ([6]; dose 20 mg/kg) was 4/8 and the “N/F (fraction of rats responded)” value ([6]; dose 40 mg/kg) was 5/8. The “N/F (fraction of rats responded)” value ([6]; dose 80 mg/kg) was 7/8 and the ED50 [6] was 29.4 mg/kg.
With `CONC(=O)C1C(C)(C)C1(C)C` [Compound V, N-methoxy-2,2,3,3-tetramethylcyclopropane carboxamide] the ED50 [1] was 74 mg/kg, the ED50 [4] was 35 mg/kg and the ED50 [5] was 115 mg/kg. It also gave a TD50 [7] of 166 mg/kg.
`CC1(C)C(C(=O)Nc2nnc(S(N)(=O)=O)s2)C1(C)C` [Compound VI, 5-(2,2,3,3-tetramethylcyclopropanecarbonylamido)-1,3,4-thiadiazole-2-sulfonamide] gave an ED50 [5] of 16 mg/kg.
In the case of `CN(C)C(=O)NC(=O)C1C(C)(C)C1(C)C` [II, 1,1-N,N-dimethyl-2,2,3,3-tetramethylcyclopropanecarbonyl urea], the neurotoxicity (rats [3]; oral, doses up to 500 mg/kg) is reported as “no neurotoxicity” and the ED50 [6] is reported as 87 mg/kg.
In the case of `CNC(=O)C1C(C)(C)C1(C)C` [M-TMCD, N-methyl 2,2,3,3-tetramethylcyclopropane carboxamide], the “anticonvulsant potency relative to VPA” value [8] is listed as “approximately 10 times”, the “protective index or safety” value (rats [3]) is listed as 2 and the “ED50 in rat-MES” value [9] is listed as 82 mg/kg. The teratogenicity (mouse model; mouse, in vivo) was “not teratogenic” and the “ED50 in mice-MES” value [10] was 99 mg/kg.
For `CC1(C)C(C(=O)NCC(N)=O)C1(C)C` [TMC glycinamide, N-2,2,3,3-tetramethylcyclopropyl carbonyl-glycinamide], the “ED50 in the scMet model” value [11] is given as greater than 250 mg/kg, the “protective index or safety” value (rats [3]) is given as greater than 6.1 and the “ED50 in rat-MES” value [9] is given as 82 mg/kg. The “ED50 in mice-MES” value [10] was 173 mg/kg and the “TD50 (median neurological toxic dose)” value (rats [12]) was “above 500 mg/kg”.
In the case of `CC1(C)C(C(N)=O)C1(C)C` [tetramethylcyclopropane carboxamide], the teratogenicity (mouse model; mouse model) is given as “not teratogenic”.
